Earlier results on three molecules are cited in article PMC6344135, “Analgesic effects of the cathepsin K inhibitor L-006235 in the monosodium iodoacetate model of osteoarthritis pain” (Pain Reports, 2018).

The subject of one data set is MIA model of OA pain. Conditions: preventative and reversal.
The subject of data set [1] is rabbit ACLT and dog partial medial meniscectomy models. On the set-up: method as in PMID 29523155. The following applies: once daily for 7 weeks (rabbit), 28 days (dog).
For the next data set, the system named is surgical model of OA. The following applies: pain not analysed.

On to `O=P(O)(O)C(O)(Cn1ccnc1)P(=O)(O)O` [zoledronate], for which, in the data set on MIA model of OA pain, the “pain behaviour in MIA rats” value was “Significant preventative, and reversal, effects”.
Consider `C#C[C@@H]1CN(C(=O)[C@H](CC(C)C)NC(=O)c2ccc(-c3nc(N4CCN(C)CC4)sc3F)cc2)[C@@H]2C(=O)CO[C@H]12` [MIV-711], for which the joint pathology result in data set [1] was “prophylactic and therapeutic effects”.
Consider `NCCCC(O)(P(=O)(O)O)P(=O)(O)O` [alendronate], for which the “bone resorption and cartilage” value in the data set on surgical model of OA is “inhibited bone resorption and had chondroprotective effects”.
